# Measurements: patent publication US20030199002A1, “Clk-2 nucleic acids, polypeptides and uses thereof” (priority 2000, published 2003)
# Columns and labels:
# [1] = test system: SK-HEP-1 cells overexpressing hclk-2; assay: Cell death assay (trypan blue exclusion) in SK-HEP-1 cells overexpressing hclk-2; format: cell-based, human; conditions: SK-HEP-1 cells overexpressing hclk-2 vs control cells
# Method: (§1) FIG. 11 illustrates the affect of hclk-2 overexpression on sensitivity to menadione, t-butyl hydroperoxide and hydroxyurea of SK-HEP-1 cells. SK-HEP-1 cells overexpressing hclk-2 and control cells were seeded at 1×10^5/well in a 6-well dish and were treated with γ-rays or apoptosis-inducing compounds for various lengths of time (see Table 7). Cells were then trypsinized, diluted and stained with 0.2% trypan blue. Cell viability was expressed as the percentage of cells excluding trypan blue. The data shown are the means of triplicate experiments. When cells were treated with menadione, t-butyl hydroperoxide or hydroxyurea, the viability of SK-HEP-1 cells overexpressing hclk-2 (44%, 30%, 40% respectively) was dramatically lower than that of the control cells (70%, 63%, 76%), respectively.
# (§2) To determine the occurrence of cell death, cells were seeded at 1×10^5 in 6-well dishes. The next day the cells were treated by γ-ray (20 Gy) and counted 72 hr later. A series of different apoptosis-inducing agents were also investigated and the cells were analyzed at various times following treatment (see Table 7). Cell viability was measured by the trypan blue exclusion method.
# [2] = as above; format: cell-based, human; conditions: human; SK-HEP-1 cells overexpressing hclk-2; concentration and time per Table 7: menadione 12 μM 24 hr, t-butyl hydroperoxide 40 μM 48 hr, hydroxyurea 0.6 mM 96 hr; means of triplicate; read-out: Cell viability (percentage of cells excluding trypan blue)
# Method: as §1, §2
# [3] = Cell death assay (trypan blue exclusion) in SK-HEP-1 control cells; format: cell-based; conditions: human; SK-HEP-1 control cells (empty vector); concentration and time per Table 7: menadione 12 μM 24 hr, t-butyl hydroperoxide 40 μM 48 hr, hydroxyurea 0.6 mM 96 hr; means of triplicate; read-out: Cell viability (percentage of cells excluding trypan blue)
# Method: as §1, §2
compound,measurement,setting,value
"COc1cc([C@@H]2c3cc4c(cc3[C@@H](O[C@@H]3O[C@@H]5CO[C@@H](C)O[C@H]5[C@H](O)[C@H]3O)[C@H]3COC(=O)[C@H]23)OCO4)cc(OC)c1O [etoposide, Etoposide]","Sensitivity of cells overexpressing hclk-2 to the apoptosis-inducing agent, compared to control cells",[1],no evidence to suggest that an increased sensitivity
"NC(=O)NO [hydroxyurea, Hydroxyurea]","Sensitivity of cells overexpressing hclk-2 to the apoptosis-inducing agent, compared to control cells",[1],also hypersensitive
"CC1=CC(=O)c2ccccc2C1=O [menadione, Menadione]","Sensitivity of cells overexpressing hclk-2 to the apoptosis-inducing agent, compared to control cells",[1],specifically hypersensitive
"CC(C)(C)OO [t-butyl hydroperoxide, t-Butyl hydroperoxide]","Sensitivity of cells overexpressing hclk-2 to the apoptosis-inducing agent, compared to control cells",[1],specifically hypersensitive
same,viability,[2],30%
same,viability,[3],63%
